Assay results: ChEMBL document CHEMBL4765305, “Elephantopinolide A-P, germacrane-type sesquiterpene lactones from Elephantopus scaber induce apoptosis, autophagy and G2/M phase arrest in hepatocellular carcinoma cells” (Eur J Med Chem, 2020)
The source made the active and inactive calls. The rule behind the calls is not given here.

Experiments:
[1] = test system: HepG2; assay: Anti-hepatoma activity against human HepG2 cells assessed as cell growth inhibition by MTT assay; format: functional, cell-based
[2] = test system: Hep 3B2; assay: Anti-hepatoma activity against human Hep3B cells assessed as cell growth inhibition by MTT assay; format: functional, cell-based
[3] = test system: Hep 3B2; assay: Induction of autophagy in human Hep3B cells at 6 uM by MDC staining based flow cytometry analysis (reference value: 3.52%); format: functional
[4] = test system: Hep 3B2; assay: Induction of autophagy in human Hep3B cells at 3 uM by MDC staining based flow cytometry analysis (reference value: 3.52%); format: functional
[5] = test system: HepG2; assay: Induction of apoptosis in human HepG2 cells assessed as cell shrinkage upto 9 uM incubated for 48 hrs by phase contrast microscopy; format: functional, cell-based; settings: dose microM <=9, time 48.0 hrs
[6] = test system: Hep 3B2; assay: Induction of apoptosis in human Hep3B cells assessed as cell shrinkage upto 9 uM incubated for 48 hrs by phase contrast microscopy; format: functional, cell-based; settings: dose microM <=9, time 48.0 hrs
[7] = test system: HepG2; assay: Induction of apoptosis in human HepG2 cells assessed as membrane blebbing upto 9 uM incubated for 48 hrs by phase contrast microscopy; format: functional, cell-based; settings: dose microM <=9, time 48.0 hrs
[8] = test system: Hep 3B2; assay: Induction of apoptosis in human Hep3B cells assessed as membrane blebbing upto 9 uM incubated for 48 hrs by phase contrast microscopy; format: functional, cell-based; settings: dose microM <=9, time 48.0 hrs
[9] = test system: HepG2; assay: Induction of apoptosis in human HepG2 cells assessed as nuclear condensation at 3 to 9 uM incubated for 48 hrs by Hoechst 33258 staining based fluorescence microscopy analysis; format: functional, cell-based; settings: dose 3-9 µM
[10] = test system: Hep 3B2; assay: Induction of apoptosis in human Hep3B cells assessed as nuclear condensation at 3 to 9 uM incubated for 48 hrs by Hoechst 33258 staining based fluorescence microscopy analysis; format: functional, cell-based; settings: dose 3-9 µM
[11] = test system: HepG2; assay: Induction of apoptosis in human HepG2 cells assessed as nuclear fragmentation at 3 to 9 uM incubated for 48 hrs by Hoechst 33258 staining based fluorescence microscopy analysis; format: functional, cell-based; settings: dose 3-9 µM
[12] = test system: Hep 3B2; assay: Induction of apoptosis in human Hep3B cells assessed as nuclear fragmentation at 3 to 9 uM incubated for 48 hrs by Hoechst 33258 staining based fluorescence microscopy analysis; format: functional, cell-based; settings: dose 3-9 µM
[13] = test system: Hep 3B2; assay: Induction of apoptosis in human Hep3B cells assessed as early apoptotic cells at 3 uM incubated for 48 hrs by AnnexinV-FITC and propidium iodide staining based flow cytometry analysis (reference value: 3.05%); format: functional
[14] = test system: Hep 3B2; assay: Induction of apoptosis in human Hep3B cells assessed as early apoptotic cells at 6 uM incubated for 48 hrs by AnnexinV-FITC and propidium iodide staining based flow cytometry analysis (reference value: 3.05%); format: functional
[15] = test system: Hep 3B2; assay: Induction of apoptosis in human Hep3B cells assessed as early apoptotic cells at 9 uM incubated for 48 hrs by AnnexinV-FITC and propidium iodide staining based flow cytometry analysis (reference value: 3.05%); format: functional
[16] = test system: Hep 3B2; assay: Induction of apoptosis in human Hep3B cells assessed as late apoptotic cells at 3 uM incubated for 48 hrs by AnnexinV-FITC and propidium iodide staining based flow cytometry analysis (reference value: 3.32%); format: functional
[17] = test system: Hep 3B2; assay: Induction of apoptosis in human Hep3B cells assessed as late apoptotic cells at 6 uM incubated for 48 hrs by AnnexinV-FITC and propidium iodide staining based flow cytometry analysis (reference value: 3.32%); format: functional
[18] = test system: Hep 3B2; assay: Induction of apoptosis in human Hep3B cells assessed as late apoptotic cells at 9 uM incubated for 48 hrs by AnnexinV-FITC and propidium iodide staining based flow cytometry analysis (reference value: 3.32%); format: functional
[19] = test system: HepG2; assay: Induction of apoptosis in human HepG2 cells assessed as early apoptotic cells at 3 uM incubated for 48 hrs by AnnexinV-FITC and propidium iodide staining based flow cytometry analysis (reference value: 2.45%); format: functional
[20] = test system: HepG2; assay: Induction of apoptosis in human HepG2 cells assessed as early apoptotic cells at 6 uM incubated for 48 hrs by AnnexinV-FITC and propidium iodide staining based flow cytometry analysis (reference value: 2.45%); format: functional
[21] = test system: HepG2; assay: Induction of apoptosis in human HepG2 cells assessed as early apoptotic cells at 9 uM incubated for 48 hrs by AnnexinV-FITC and propidium iodide staining based flow cytometry analysis (reference value: 2.45%); format: functional
[22] = test system: HepG2; assay: Induction of apoptosis in human HepG2 cells assessed as late apoptotic cells at 3 uM incubated for 48 hrs by AnnexinV-FITC and propidium iodide staining based flow cytometry analysis (reference value: 2.46%); format: functional
[23] = test system: HepG2; assay: Induction of apoptosis in human HepG2 cells assessed as late apoptotic cells at 6 uM incubated for 48 hrs by AnnexinV-FITC and propidium iodide staining based flow cytometry analysis (reference value: 2.46%); format: functional
[24] = test system: HepG2; assay: Induction of apoptosis in human HepG2 cells assessed as late apoptotic cells at 9 uM incubated for 48 hrs by AnnexinV-FITC and propidium iodide staining based flow cytometry analysis (reference value: 2.46%); format: functional
[25] = test system: HepG2; assay: Induction of apoptosis in human HepG2 cells assessed as increase in caspase-3 activity measured after 2 hrs by microplate reader; format: functional, cell-based; settings: dose 3-9 µM
[26] = test system: Hep 3B2; assay: Induction of apoptosis in human Hep3B cells assessed as increase in caspase-3 activity measured after 2 hrs by microplate reader; format: functional, cell-based; settings: dose 3-9 µM
[27] = test system: HepG2; assay: Induction of apoptosis in human HepG2 cells assessed as increase in cleaved caspase-3 activity measured by western blot analysis; format: functional, cell-based; settings: dose 3-9 µM
[28] = test system: HepG2; assay: Induction of apoptosis in human HepG2 cells assessed as increase in FADD level measured by western blot analysis; format: functional, cell-based; settings: dose 3-9 µM
[29] = test system: HepG2; assay: Induction of apoptosis in human HepG2 cells assessed as decrease in PARP level at 3 to 9 uM measured by western blot analysis; format: functional, cell-based; settings: dose 3-9 µM
[30] = test system: HepG2; assay: Induction of apoptosis in human HepG2 cells assessed as decrease in Bcl-2 level measured by western blot analysis; format: functional, cell-based; settings: dose 3-9 µM
[31] = test system: HepG2; assay: Induction of apoptosis in human HepG2 cells assessed as increase in Bax level at 3 to 9 uM measured by western blot analysis; format: functional, cell-based; settings: dose 3-9 µM
[32] = test system: Hep 3B2; assay: Induction ROS generation in human Hep3B cells assessed as intracellular ROS level measured after 4 hrs by H2DCF-DA probe based flow cytometry (reference value: 4.24 %); format: functional
[33] = test system: Hep 3B2; assay: Induction ROS generation in human Hep3B cells assessed as intracellular ROS level measured after 2 hrs by H2DCF-DA probe based flow cytometry (reference value: 4.24 %); format: functional
[34] = test system: Hep 3B2; assay: Induction ROS generation in human Hep3B cells assessed as intracellular ROS level measured after 1 hrs by H2DCF-DA probe based flow cytometry (reference value: 4.24 %); format: functional
[35] = test system: Hep 3B2; assay: Induction ROS generation in human Hep3B cells assessed as intracellular ROS level measured after 30 mins by H2DCF-DA probe based flow cytometry (reference value: 4.24 %); format: functional; settings: 0.5 h
[36] = test system: Hep 3B2; assay: Induction ROS generation in human Hep3B cells assessed as intracellular ROS level measured after 15 mins by H2DCF-DA probe based flow cytometry (reference value: 4.24 %); format: functional; settings: 0.25 h
[37] = test system: Hep 3B2; assay: Induction of mitochondrial membrane potential loss in human Hep3B cells measured after 48 hrs by JC-1 staining based flow cytometry analysis; format: functional, cell-based; settings: dose 3-9 µM
[38] = test system: HepG2; assay: Induction ROS generation in human HepG2 cells assessed as intracellular ROS level measured after 4 hrs by H2DCF-DA probe based flow cytometry (reference value: 5.05%); format: functional
[39] = test system: HepG2; assay: Induction ROS generation in human HepG2 cells assessed as intracellular ROS level measured after 2 hrs by H2DCF-DA probe based flow cytometry (reference value: 5.05%); format: functional
[40] = test system: HepG2; assay: Induction of mitochondrial membrane potential loss in human HepG2 cells measured after 48 hrs by JC-1 staining based flow cytometry analysis; format: functional, cell-based; settings: dose 3-9 µM
[41] = test system: HepG2; assay: Induction ROS generation in human HepG2 cells assessed as intracellular ROS level measured after 1 hrs by H2DCF-DA probe based flow cytometry (reference value: 5.05%); format: functional
[42] = test system: HepG2; assay: Induction ROS generation in human HepG2 cells assessed as intracellular ROS level measured after 30 mins by H2DCF-DA probe based flow cytometry (reference value: 5.05%); format: functional; settings: 0.5 h
[43] = test system: HepG2; assay: Induction ROS generation in human HepG2 cells assessed as intracellular ROS level measured after 15 mins by H2DCF-DA probe based flow cytometry (reference value: 5.05%); format: functional; settings: 0.25 h
[44] = test system: Hep 3B2; assay: Induction of autophagy in human Hep3B cells at 9 uM by MDC staining based flow cytometry analysis (reference value: 3.52%); format: functional
[45] = test system: HepG2; assay: Induction of autophagy in human HepG2 cells at 3 uM by MDC staining based flow cytometry analysis (reference value: 4.46%); format: functional
[46] = test system: HepG2; assay: Induction of autophagy in human HepG2 cells at 6 uM by MDC staining based flow cytometry analysis (reference value: 4.46%); format: functional
[47] = test system: HepG2; assay: Induction of autophagy in human HepG2 cells at 9 uM by MDC staining based flow cytometry analysis (reference value: 4.46%); format: functional
[48] = test system: HepG2; assay: Induction of cell cycle arrest in human HepG2 cells assessed as accumulation at G2/M phase by PI-staining based flow cytometric analysis; format: functional
[49] = test system: Hep 3B2; assay: Induction of cell cycle arrest in human Hep3B cells assessed as accumulation at G2/M phase by PI-staining based flow cytometric analysis; format: functional
[50] = test system: HepG2; assay: Activation of ERK phosphorylation in human HepG2 cells by Western blot analysis; format: cell-based; settings: filed as activator, dose 3-9 µM
[51] = test system: HepG2; assay: Activation of p-38 phosphorylation in human HepG2 cells by Western blot analysis; format: cell-based; settings: filed as activator, dose 3-9 µM
[52] = test system: HepG2; assay: Activation of JNK phosphorylation in human HepG2 cells by Western blot analysis; format: cell-based; settings: filed as activator, dose 3-9 µM

C=C1C(=O)O[C@H]2[C@H]1[C@@H](OC(=O)/C(C)=C\C)CC1=C[C@H](C[C@@]3(C)O[C@@H]23)OC1=O
IC50 [1]: 2.97 µM | IC50 [2]: 7.14 µM

C=C(C)C(=O)O[C@H]1CC2=C[C@H](CC(=C)[C@@H](O)[C@H]3OC(=O)C(=C)[C@@H]31)OC2=O
IC50 [1]: 8.59 µM | IC50 [2]: 8.79 µM

COC[C@@H]1C(=O)O[C@H]2[C@H]1[C@@H](O)CC1=C[C@H](C[C@@]3(C)O[C@@H]23)OC1=O
IC50 [1]: > 20 µM | IC50 [2]: > 20 µM

C=C(C)C(=O)O[C@H]1CC2=C[C@@H](C[C@@]3(C)O[C@H]3[C@H]3OC(=O)C(=C)[C@@H]31)OC2=O
Activity [3]: 39.2% | Activity [4]: 15.7% | IC50 [1]: 2.83 µM | IC50 [2]: 1.98 µM | Activity [5]: Active | Activity [6]: Active | Activity [7]: Active | Activity [8]: Active | Activity [9]: Active | Activity [10]: Active | Activity [11]: Active | Activity [12]: Active | Activity [13]: 5.14% | Activity [14]: 18.2% | Activity [15]: 15.5% | Activity [16]: 5.56% | Activity [17]: 11.9% | Activity [18]: 31.9% | Activity [19]: 14.9% | Activity [20]: 33.7% | Activity [21]: 37.8% | Activity [22]: 4.56% | Activity [23]: 13.2% | Activity [24]: 29.1% | Activity [25]: Dose-dependent effect | Activity [26]: Dose-dependent effect | Activity [27]: Dose-dependent effect | Activity [28]: Dose-dependent effect | Activity [29]: Active | Activity [30]: Dose-dependent effect | Activity [31]: Active | Activity [32]: 5.04% | Activity [33]: 7.42% | Activity [34]: 9.85% | Activity [35]: 22.8% | Activity [36]: 19.5% | Activity [37]: Dose-dependent effect | Activity [38]: 6.58% | Activity [39]: 13.1% | Activity [40]: Dose-dependent effect | Activity [41]: 14.6% | Activity [42]: 28.9% | Activity [43]: 19.9% | Activity [44]: 69.6% | Activity [45]: 9.52% | Activity [46]: 28.2% | Activity [47]: 65.9% | Activity [48]: Active | Activity [49]: Active | Activity [50]: Dose-dependent effect | Activity [51]: Dose-dependent effect | Activity [52]: Dose-dependent effect
